Measurements as given in patent publication US8987233B2, “Bruton's tyrosine kinase activity probe and method of using” (Pharmacyclics, Inc., priority 2006, dated 2015).

How the values were obtained:
[1] = molecular target: Btk Lys 430 to Ala mutant (Homo sapiens, UniProt Q06187, K430A); experiment: Probe labeling in 293H cells transiently co-expressing PLCγ2 and Btk K430A; settings: transient co-expression with PLCγ2
Protocol: (§3) The selected co-expressor cell line was routinely maintained in D-MEM containing 10% FBS, 1× non-essential amino acids, 1× antibiotics, and supplemented with 200 μg/ml G418 and 25 μg/ml blastocidin. […] Cells were then harvested and lysed by incubation in 50 μl of cell lysis buffer (CelLytic M, Sigma) supplemented with 1× protease inhibitor and 1× phosphatase inhibitor cocktails (Calbiochem) for 10 min on ice. The protein concentrations in cell lysates were determined by Bradford protein assay (Pierce). Lysates equivalent to 20 μg of total protein were fractionated on 4 to 20% SDS-gradient gels (Invitrogen), and scanned using a Typhoon densitometer as described above. Labeling of Ramos cells was carried out in identical fashion except RPMI medium was used.

Abl = Abl (Homo sapiens, UniProt P00519); experiment: TR-FRET kinase assay, Abl; assay type: biochemical; settings: ATP at Km
Sequence of Abl (P00519 whole entry, species assumed): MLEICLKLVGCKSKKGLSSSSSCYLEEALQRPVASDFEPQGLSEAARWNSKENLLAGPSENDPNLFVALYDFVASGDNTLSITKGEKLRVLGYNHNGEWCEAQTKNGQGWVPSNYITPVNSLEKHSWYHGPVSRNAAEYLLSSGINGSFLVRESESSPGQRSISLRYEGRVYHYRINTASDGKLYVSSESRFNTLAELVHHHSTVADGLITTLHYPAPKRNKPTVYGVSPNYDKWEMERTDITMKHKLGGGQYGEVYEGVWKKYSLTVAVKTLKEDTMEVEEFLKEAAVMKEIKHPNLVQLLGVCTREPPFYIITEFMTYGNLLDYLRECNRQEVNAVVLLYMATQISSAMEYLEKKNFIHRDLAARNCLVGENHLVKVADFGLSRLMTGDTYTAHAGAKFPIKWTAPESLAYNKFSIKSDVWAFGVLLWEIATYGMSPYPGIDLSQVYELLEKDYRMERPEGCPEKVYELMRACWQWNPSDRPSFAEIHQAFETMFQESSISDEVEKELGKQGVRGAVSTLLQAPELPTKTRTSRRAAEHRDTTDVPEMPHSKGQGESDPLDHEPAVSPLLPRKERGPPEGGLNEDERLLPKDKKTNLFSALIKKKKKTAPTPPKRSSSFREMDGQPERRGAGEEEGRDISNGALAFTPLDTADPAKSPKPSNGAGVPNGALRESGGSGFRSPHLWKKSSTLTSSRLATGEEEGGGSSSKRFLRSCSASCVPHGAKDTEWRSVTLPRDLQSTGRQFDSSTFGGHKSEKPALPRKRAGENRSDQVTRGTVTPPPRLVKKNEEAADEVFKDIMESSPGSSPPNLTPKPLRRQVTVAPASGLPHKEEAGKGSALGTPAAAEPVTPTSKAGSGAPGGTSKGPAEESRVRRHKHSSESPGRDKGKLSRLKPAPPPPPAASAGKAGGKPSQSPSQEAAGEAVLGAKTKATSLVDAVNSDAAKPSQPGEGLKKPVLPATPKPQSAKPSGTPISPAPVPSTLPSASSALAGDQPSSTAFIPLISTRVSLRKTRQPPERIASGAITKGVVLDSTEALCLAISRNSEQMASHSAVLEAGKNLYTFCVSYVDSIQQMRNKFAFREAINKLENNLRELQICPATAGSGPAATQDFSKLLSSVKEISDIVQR
Protocol: (§1) Kinase activity for Btk, Abl, c-met, ITK, LCK, and EGFR was determined using a time-resolved fluorescence resonance energy transfer (TR-FRET) methodology. Measurements were performed in a reaction volume of 50 μl using 96-well assay plates. […] For each compound, enzyme activity was measured at various concentrations of compound. Negative control reactions were performed in the absence of inhibitor in replicates of six, and two no-enzyme controls were used to determine baseline fluorescence levels. Inhibition constants {Ki(app)} were obtained using the program BatchKi (23).

Btk [2] = molecular target: T1, Btk (Homo sapiens, UniProt Q06187); experiment: Probe labeling of endogenous Btk in cultured B cells (DOHH2)
T1 sequence (Q06187 whole entry): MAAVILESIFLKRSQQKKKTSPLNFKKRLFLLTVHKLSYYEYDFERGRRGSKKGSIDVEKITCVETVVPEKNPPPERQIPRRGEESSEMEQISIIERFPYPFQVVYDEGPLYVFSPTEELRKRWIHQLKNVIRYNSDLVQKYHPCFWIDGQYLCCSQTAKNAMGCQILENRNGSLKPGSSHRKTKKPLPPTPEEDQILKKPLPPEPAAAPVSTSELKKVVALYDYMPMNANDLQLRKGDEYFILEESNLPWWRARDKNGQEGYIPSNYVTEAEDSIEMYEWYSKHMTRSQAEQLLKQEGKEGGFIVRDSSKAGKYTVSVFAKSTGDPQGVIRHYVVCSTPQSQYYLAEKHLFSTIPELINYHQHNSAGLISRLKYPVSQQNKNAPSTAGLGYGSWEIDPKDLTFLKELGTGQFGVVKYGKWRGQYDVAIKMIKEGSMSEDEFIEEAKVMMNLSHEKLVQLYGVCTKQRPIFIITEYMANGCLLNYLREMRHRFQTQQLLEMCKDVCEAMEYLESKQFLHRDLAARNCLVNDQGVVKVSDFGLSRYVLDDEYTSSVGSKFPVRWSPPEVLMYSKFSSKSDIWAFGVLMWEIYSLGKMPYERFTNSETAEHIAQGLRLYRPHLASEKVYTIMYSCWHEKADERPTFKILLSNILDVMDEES
Protocol: In some embodiments, to determine if a test Btk probe detects endogenous levels of Btk activity, label cultured B cells such as Ramos or DOHH2 B cells were used.
Cells were then harvested and lysed by incubation in 50 μl of cell lysis buffer (CelLytic M, Sigma) supplemented with 1× protease inhibitor and 1× phosphatase inhibitor cocktails (Calbiochem) for 10 min on ice. The protein concentrations in cell lysates were determined by Bradford protein assay (Pierce). Lysates equivalent to 20 μg of total protein were fractionated on 4 to 20% SDS-gradient gels (Invitrogen), and scanned using a Typhoon densitometer as described above. Labeling of Ramos cells was carried out in identical fashion except RPMI medium was used.

[3] = molecular target: Btk Cys 481 to Ala mutation (Homo sapiens, UniProt Q06187, C481A); experiment: Probe labeling in 293H cells transiently co-expressing PLCγ2 and Btk C481A; settings: transient co-expression with PLCγ2
Sequence of Btk Cys 481 to Ala mutation (Q06187 whole entry C481A): as the sequence (Q06187 whole entry) above, with C481A counted along it
Protocol: as §3

Btk [4] = molecular target: T1, Btk; experiment: Probe labeling of Btk in 293H cells stably co-expressing Btk and PLCγ2
purified, active Btk = purified, active Btk (Homo sapiens, UniProt Q06187); experiment: Btk labeling in vitro (purified enzyme, SDS-PAGE, fluorescent scan)
Sequence of purified, active Btk (Q06187 whole entry): as the sequence (Q06187 whole entry) above

Btk [5] = molecular target: T1, Btk; experiment: TR-FRET kinase assay, Btk; assay type: biochemical; set-up: His6 (N); purchased Upstate Biochem
Protocol: (§2) Kinase activity for Btk, Abl, c-met, ITK, LCK, and EGFR was determined using a time-resolved fluorescence resonance energy transfer (TR-FRET) methodology. Measurements were performed in a reaction volume of 50 μl using 96-well assay plates. […] The reaction was quenched by the addition of 1.2 equivalents of EDTA (relative to divalent cation) in 25 μL of 1× Lance buffer (Perkin-Elmer). Streptavidin-APC (Perkin-Elmer) and Eu-labeled p-Tyr100 antibody (Perkin-Elmer) in 1× Lance buffer were added in a 25 μL volume to give final concentrations of 100 nM and 2.5 nM, respectively, and the mixture was allowed to incubate for one hour. The TR-FRET signal was measured on a multimode plate reader with an excitation wavelength of 330 nm and detection wavelengths of 615 and 665 nm. Activity was determined by the ratio of the fluorescence at 665 nm to that at 615 nm. For each compound, enzyme activity was measured at various concentrations of compound. Negative control reactions were performed in the absence of inhibitor in replicates of six, and two no-enzyme controls were used to determine baseline fluorescence levels. Inhibition constants {Ki(app)} were obtained using the program BatchKi (23). […]; for all kinases, [ATP]=KmATP, [Btk]total=0.5 nM and [Lck]total=6 nM.

[6] = system: intracellular calcium mobilization in Ramos cells following B cell receptor activation; experiment: Calcium flux assay in Ramos B-cells stimulated with anti-human IgM; assay type: cell-based; settings: anti-IgM stimulation, read-out: IC50 Ca2+ flux (calcium mobilization)
Protocol: Calcium flux assay was performed according to the protocol described by the manufacturer (Molecular Devices). Briefly, actively growing Ramos B-cells in RPMI medium supplemented with 10% FBS were washed and re-plated in low serum medium to approximately 5×10^5 cells per 100 μl per well in 96-well plate. Compounds to be assayed were dissolved in DMSO, diluted to appropriate concentrations in low serum medium (from 0 to 10 μM final concentrations at a stepwise dilution factor of 0.3), added to each well (the final DMSO concentration was 0.01% in each well) and incubated at 37° in a 5% CO2 incubator for 1 hour. 100 μl calcium assay dye (Calcium 3 assay kit, Molecular Devices) was then added to each well and the incubation was continued for one hour. Compound-treated cells were stimulated with a goat anti-human IgM antibody (80 μg/ml) and the calcium mobilization signal was read in a Flexstation II 384 (Molecular Devices) at excitation and emission wavelengths of 485 nm and 538 nm, respectively, for 200 seconds. The relative fluorescence units (RFU) and the fifty percent inhibition values (IC50%) were recorded and analyzed using the SoftMax program (Molecular Devices).

Lck = Lck (Homo sapiens, UniProt P06239); experiment: TR-FRET kinase assay, Lck; assay type: biochemical; settings: ATP at Km
Sequence of Lck (P06239 whole entry, species assumed): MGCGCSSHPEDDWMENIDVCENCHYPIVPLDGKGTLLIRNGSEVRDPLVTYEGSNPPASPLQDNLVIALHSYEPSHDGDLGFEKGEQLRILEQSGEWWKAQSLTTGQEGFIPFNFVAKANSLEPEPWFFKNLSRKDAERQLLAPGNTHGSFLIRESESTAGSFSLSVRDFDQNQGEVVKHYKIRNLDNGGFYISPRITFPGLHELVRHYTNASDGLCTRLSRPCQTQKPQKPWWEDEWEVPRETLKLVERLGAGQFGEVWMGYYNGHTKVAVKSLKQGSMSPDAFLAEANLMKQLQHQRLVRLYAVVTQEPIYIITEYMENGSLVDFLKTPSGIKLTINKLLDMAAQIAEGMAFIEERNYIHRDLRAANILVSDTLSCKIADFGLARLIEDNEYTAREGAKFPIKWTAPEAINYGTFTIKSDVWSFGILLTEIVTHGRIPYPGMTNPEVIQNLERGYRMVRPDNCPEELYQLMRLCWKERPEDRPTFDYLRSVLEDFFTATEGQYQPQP
Protocol: as §1

[7] = molecular target: Btk Tyr 551 to Ala mutant (Homo sapiens, UniProt Q06187, Y551A); experiment: Probe labeling in 293H cells transiently co-expressing PLCγ2 and Btk Y551A; settings: transient co-expression with PLCγ2
Sequence of Btk Tyr 551 to Ala mutant (Q06187 whole entry Y551A): as the sequence (Q06187 whole entry) above, with Y551A counted along it
Protocol: as §3

EGFR = EGFR (Homo sapiens, UniProt P00533); experiment: TR-FRET kinase assay, EGFR; assay type: biochemical; settings: ATP at Km
Sequence of EGFR (P00533 25-1210, species assumed): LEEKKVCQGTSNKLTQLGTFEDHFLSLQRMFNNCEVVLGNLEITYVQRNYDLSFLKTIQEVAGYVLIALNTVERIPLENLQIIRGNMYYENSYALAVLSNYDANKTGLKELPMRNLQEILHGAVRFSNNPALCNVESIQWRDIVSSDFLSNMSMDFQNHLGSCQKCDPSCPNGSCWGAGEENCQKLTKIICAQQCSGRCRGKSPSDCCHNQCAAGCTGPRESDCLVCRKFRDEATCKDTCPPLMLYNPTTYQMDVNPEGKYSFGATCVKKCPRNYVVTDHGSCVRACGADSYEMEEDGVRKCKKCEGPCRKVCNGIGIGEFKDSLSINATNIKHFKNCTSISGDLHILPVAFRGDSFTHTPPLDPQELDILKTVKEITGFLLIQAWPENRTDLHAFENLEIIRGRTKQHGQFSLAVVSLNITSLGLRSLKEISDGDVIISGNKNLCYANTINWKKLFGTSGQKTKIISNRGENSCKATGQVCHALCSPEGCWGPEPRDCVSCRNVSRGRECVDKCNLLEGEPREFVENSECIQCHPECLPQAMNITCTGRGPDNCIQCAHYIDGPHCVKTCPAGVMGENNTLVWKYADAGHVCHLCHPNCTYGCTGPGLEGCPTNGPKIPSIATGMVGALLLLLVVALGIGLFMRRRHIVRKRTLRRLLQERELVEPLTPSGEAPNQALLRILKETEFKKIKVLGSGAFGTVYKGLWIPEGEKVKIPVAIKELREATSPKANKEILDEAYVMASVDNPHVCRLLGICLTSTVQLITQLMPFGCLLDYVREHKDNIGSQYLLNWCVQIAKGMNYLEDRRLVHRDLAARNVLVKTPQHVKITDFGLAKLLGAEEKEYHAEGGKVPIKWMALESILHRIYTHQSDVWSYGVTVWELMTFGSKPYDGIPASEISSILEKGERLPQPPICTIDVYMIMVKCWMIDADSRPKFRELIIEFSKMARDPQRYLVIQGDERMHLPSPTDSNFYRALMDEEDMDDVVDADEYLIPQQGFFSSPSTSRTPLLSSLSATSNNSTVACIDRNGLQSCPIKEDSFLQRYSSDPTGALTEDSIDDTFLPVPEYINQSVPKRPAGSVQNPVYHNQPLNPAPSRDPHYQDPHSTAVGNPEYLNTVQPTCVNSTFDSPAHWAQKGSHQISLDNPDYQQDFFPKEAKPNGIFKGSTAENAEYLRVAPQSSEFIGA
Protocol: as §2

Btk [8] = molecular target: T1, Btk; experiment: Inhibition of PLCγ2 phosphorylation at Tyr 1217 in 293H cells (ELISA); assay type: cell-based; settings: Tyr 1217, ELISA, read-out: IC50 for probe inhibition of PLCγ2 phosphorylation
c-met = c-met (Homo sapiens, UniProt P08581); experiment: TR-FRET kinase assay, c-met; assay type: biochemical; settings: ATP at Km
Sequence of c-met (P08581 25-1390): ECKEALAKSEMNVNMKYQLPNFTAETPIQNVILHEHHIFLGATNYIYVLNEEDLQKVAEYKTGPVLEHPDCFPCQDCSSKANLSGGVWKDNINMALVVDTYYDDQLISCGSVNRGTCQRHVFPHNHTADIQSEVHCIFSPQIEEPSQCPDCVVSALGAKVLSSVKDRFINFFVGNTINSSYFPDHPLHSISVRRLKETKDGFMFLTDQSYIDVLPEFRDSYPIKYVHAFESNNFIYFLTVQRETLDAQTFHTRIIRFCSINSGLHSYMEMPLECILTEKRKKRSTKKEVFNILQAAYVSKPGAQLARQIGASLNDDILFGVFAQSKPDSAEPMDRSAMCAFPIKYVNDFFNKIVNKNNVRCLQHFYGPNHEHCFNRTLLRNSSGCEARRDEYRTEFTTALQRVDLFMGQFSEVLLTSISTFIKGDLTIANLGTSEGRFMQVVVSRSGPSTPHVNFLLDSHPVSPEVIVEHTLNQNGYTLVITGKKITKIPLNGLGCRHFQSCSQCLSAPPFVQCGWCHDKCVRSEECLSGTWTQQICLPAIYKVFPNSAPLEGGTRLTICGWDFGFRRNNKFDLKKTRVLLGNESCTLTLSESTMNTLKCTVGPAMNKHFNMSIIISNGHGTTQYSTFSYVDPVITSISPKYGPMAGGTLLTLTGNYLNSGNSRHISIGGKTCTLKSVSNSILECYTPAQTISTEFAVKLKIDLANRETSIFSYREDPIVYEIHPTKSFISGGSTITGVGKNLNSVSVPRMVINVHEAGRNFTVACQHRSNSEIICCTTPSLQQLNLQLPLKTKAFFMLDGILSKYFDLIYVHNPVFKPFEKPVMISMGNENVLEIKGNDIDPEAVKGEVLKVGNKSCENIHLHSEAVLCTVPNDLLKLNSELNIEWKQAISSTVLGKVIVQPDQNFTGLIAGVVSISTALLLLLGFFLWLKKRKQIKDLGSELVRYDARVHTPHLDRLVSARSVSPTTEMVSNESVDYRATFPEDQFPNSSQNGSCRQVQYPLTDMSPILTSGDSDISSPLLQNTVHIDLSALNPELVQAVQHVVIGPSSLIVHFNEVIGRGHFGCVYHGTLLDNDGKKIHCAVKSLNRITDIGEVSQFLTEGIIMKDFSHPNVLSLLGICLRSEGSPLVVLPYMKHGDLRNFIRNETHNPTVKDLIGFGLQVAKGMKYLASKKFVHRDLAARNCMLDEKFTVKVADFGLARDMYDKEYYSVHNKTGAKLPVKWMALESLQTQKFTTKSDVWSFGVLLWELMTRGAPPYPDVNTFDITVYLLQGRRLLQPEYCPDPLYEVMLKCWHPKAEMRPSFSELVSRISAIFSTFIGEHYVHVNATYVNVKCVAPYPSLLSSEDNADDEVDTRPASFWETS
Protocol: as §2

Sequence of Btk Lys 430 to Ala mutant (Q06187 whole entry K430A): as the sequence (Q06187 whole entry) above, with K430A counted along it

Row | Probe labeling of Btk K430A mutant [1] | IC50 (Abl) [µM] | EC50 (Btk [2]) [µM] | Probe labeling of Btk C481A mutant [3] | EC50 (Btk [4]) [µM] | Probe concentration at which labeling of Btk reached saturation (purified, active Btk; 1 μg (0.13 μM) purified Btk, 1 hour at 37° C.) [µM] | IC50 (Btk [5]; ATP at Km, read-out: IC50 Btk) [µM] | IC50 (Btk [5]; read-out: IC50 against Btk) [µM] | IC50 [6] [µM] | IC50 (Lck) [µM] | Probe labeling of Btk Y551A mutant [7] | IC50 (EGFR) [µM] | IC50 (Btk [8]) [µM] | IC50 (c-met) [µM] | Effect of pre-incubation on Compound 3 labeling of Btk (purified, active Btk; pre-incubation with 1 μM Compound 2 or 0.5 mM ATPγS) | Compound
1 | no effect on probe labeling | 0.3 | ~0.2 | abrogated labeling | ~0.2 | 1 | 0.089 | 0.09 | 0.23 | 0.24 | also labeled | 2.9 | 0.3 | 100 | – | CC1=CC(C)=[N+]2C1=Cc1ccc(CCC(=O)NCCN3CCN(C/C=C/C(=O)N4CCC[C@@H](n5nc(-c6ccc(Oc7ccccc7)cc6)c6c(N)ncnc65)C4)CC3)n1[B-]2(F)F [Compound 3]
2 | – | – | – | – | – | – | – | – | – | – | – | – | – | – | substantially reduced | Nc1ncnc2c1ncn2[C@@H]1O[C@H](COP(=O)(O)OP(=O)(O)OP(O)(O)=S)[C@@H](O)[C@H]1O [ATP-γ-S, reference compound]
3 | – | – | – | – | – | – | – | – | 0.01 | – | – | – | – | 35 | – | C=CC(=O)N1CCC[C@@H](n2nc(-c3ccc(Oc4ccccc4)cc3)c3c(N)ncnc32)C1 [Compound 2]
